The results in this text go back to ChEMBL document CHEMBL6109139, “Rational Design of the First Dual Agonist at Trace Amine-Associated Receptor 1 and 5-HT2C Receptors Based on Binding Pocket Similarity for the Treatment of Schizophrenia and Alzheimer's Disease-Related Psychosis” (J Med Chem, 2025).

As usually defined, the fraction unbound is free concentration divided by total concentration. One may read the EC50 as the concentration giving half of the maximal effect.

A short description of series [1]: Toxicity in female Sprague-Dawley rat assessed as suppression of body weight gain at 7.5 mg/kg, po administered once daily for 4 weeks and measured after 4 weeks. In kind it is organism-based. The conditions noted are these: in vivo, 1344 h, time 8 weeks.
In series [2] the target is 3',5'-cyclic-AMP phosphodiesterase 4D (Homo sapiens) (UniProt Q08499). The series can be described thus: Binding affinity to PDE4D2 receptor (unknown origin) at 10 uM by radioligand binding assay relative to control.
In a further series the target is L-type calcium channel (Homo sapiens, UniProt O60840+Q01668+Q13698+Q13936). The series can be described thus: Binding affinity to L-type calcium channel (unknown origin) at 10 uM by radioligand binding assay relative to control. In kind it is protein assay. The conditions noted are these: read-out: Activity.
Series [3] can be described thus: Plasma protein binding in human assessed as unbound fraction by LC-MS/MS analysis. In kind it is ADME, cell-free.
Series [4] in a line: Toxicity in male Sprague-Dawley rat assessed as irritability at 2.5 mg/kg, po administered once daily for 4 weeks and measured after 4 weeks. The format is organism-based. The note with it: in vivo, 1344 h, time 8 weeks.
Series [5] in a line: Toxicity in female Beagle dog assessed as minimal decrease activity at 2.5 mg/kg, IG administered once daily for 4 weeks and measured after 4 weeks. The format is organism-based, Canis lupus familiaris. The note with it: in vivo, po, 1344 h, time 8 weeks.
A short description of series [6]: Toxicity in male Sprague-Dawley rat assessed as irritability at 7.5 mg/kg, po administered once daily for 4 weeks. The format is organism-based. The note with it: in vivo, 672 h.
The nature of series [7]: Toxicity in male Beagle dog assessed as somnolence at 2.5 mg/kg, IG administered once daily for 4 weeks. In kind it is organism-based, Canis lupus familiaris. The conditions noted are these: in vivo, po, 672 h.
Series [8] deals with 5-hydroxytryptamine receptor 2B (Homo sapiens) (UniProt P41595). The series can be described thus: Binding affinity to 5-HT2B (unknown origin) at 10 uM by radioligand binding assay relative to control.
Series [9] is described as follows: Toxicity in male Sprague-Dawley rat assessed as suppression of body weight gain at 7.5 mg/kg, po administered once daily for 4 weeks and measured after 4 weeks. The format is organism-based. The conditions noted are these: in vivo, 1344 h, time 8 weeks.
The target of series [10] is Cannabinoid receptor 1 (Homo sapiens) (UniProt P21554). The series can be described thus: Binding affinity to CB1 (unknown origin) at 10 uM by radioligand binding assay relative to control.
Series [11] concerns the target Alpha-2A adrenergic receptor (Homo sapiens) (UniProt P08913). The series can be described thus: Binding affinity to alpha 2A (unknown origin) at 10 uM by radioligand binding assay relative to control.
Series [12] can be described thus: Toxicity in female Beagle dog assessed as change in prolactin at 0.75 to 2.5 mg/kg, IG administered once daily for 4 weeks and measured after 4 weeks. The format is organism-based, Canis lupus familiaris. The conditions noted are these: in vivo, po, 1344 h, dose 0.75-2.5 mg/kg, time 8 weeks.
Series [13] is described as follows: Toxicity in female Beagle dog assessed as change in organ weight at 0.75 to 2.5 mg/kg, IG administered once daily for 4 weeks and measured after 4 weeks. The format is organism-based, Canis lupus familiaris. The conditions noted are these: in vivo, po, 1344 h, dose 0.75-2.5 mg/kg, time 8 weeks.
Series [14] can be described thus: Toxicity in female Sprague-Dawley rat assessed as change in blood glucose level at 2.5 to 7.5 mg/kg, po administered once daily for 4 weeks and measured after 4 weeks. The format is organism-based. The conditions noted are these: in vivo, 1344 h, dose 2.5-7.5 mg/kg, time 8 weeks.
For series [15], the target named is Acetylcholinesterase (Homo sapiens) (UniProt P22303). The series can be described thus: Binding affinity to ACHE (unknown origin) at 10 uM by radioligand binding assay relative to control.
Series [16] can be described thus: Toxicity in Sprague-Dawley rat assessed as stereotypy 2.5 to 7.5 mg/kg, po administered once daily for 4 weeks. The format is organism-based. The conditions noted are these: in vivo, 672 h, dose 2.5-7.5 mg/kg.
A short description of series [17]: Toxicity in male Beagle dog assessed as somnolence at 2.5 mg/kg, IG administered once daily for 4 weeks and measured after 4 weeks. The note with it: in vivo, po, 1344 h, time 8 weeks. The format is organism-based, Canis lupus familiaris.
For series [18], the target named is 5-hydroxytryptamine receptor 7 (Homo sapiens, UniProt P34969). The series can be described thus: Agonist activity at recombinant human 5-HT7 expressed in HEK293 cells by FLIPR calcium assay. In kind it is functional, cell-based.
Series [19] can be described thus: Ratio of drug concentration in male Sprague-Dawley rat brain to plasma at 5 mg/kg, IG measured after 0.25 hrs by LC-MS/MS analysis. In kind it is ADME, organism-based. The note with it: brain and plasma, po, read-out: BPR.
Series [20] is described as follows: Toxicity in female Sprague-Dawley rat assessed as suppression of food consumption at 7.5 mg/kg, po administered once daily for 4 weeks and measured weekly twice. In kind it is organism-based. The note with it: in vivo, 672 h.

Sequence of Alpha-2A adrenergic receptor (Homo sapiens) (P08913 whole entry): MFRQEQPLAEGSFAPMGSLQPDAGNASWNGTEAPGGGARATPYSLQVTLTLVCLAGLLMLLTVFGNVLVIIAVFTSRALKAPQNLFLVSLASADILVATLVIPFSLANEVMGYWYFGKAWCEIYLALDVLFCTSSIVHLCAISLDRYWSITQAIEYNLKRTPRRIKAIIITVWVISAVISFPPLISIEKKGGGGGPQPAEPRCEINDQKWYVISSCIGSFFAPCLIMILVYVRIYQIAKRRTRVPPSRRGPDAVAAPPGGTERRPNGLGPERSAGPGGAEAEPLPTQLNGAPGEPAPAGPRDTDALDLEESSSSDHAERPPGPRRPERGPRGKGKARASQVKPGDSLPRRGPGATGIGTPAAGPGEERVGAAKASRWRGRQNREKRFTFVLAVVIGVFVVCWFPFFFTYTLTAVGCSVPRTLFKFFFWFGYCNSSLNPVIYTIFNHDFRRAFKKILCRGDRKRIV
Sequence of 5-hydroxytryptamine receptor 2B (Homo sapiens) (P41595 whole entry): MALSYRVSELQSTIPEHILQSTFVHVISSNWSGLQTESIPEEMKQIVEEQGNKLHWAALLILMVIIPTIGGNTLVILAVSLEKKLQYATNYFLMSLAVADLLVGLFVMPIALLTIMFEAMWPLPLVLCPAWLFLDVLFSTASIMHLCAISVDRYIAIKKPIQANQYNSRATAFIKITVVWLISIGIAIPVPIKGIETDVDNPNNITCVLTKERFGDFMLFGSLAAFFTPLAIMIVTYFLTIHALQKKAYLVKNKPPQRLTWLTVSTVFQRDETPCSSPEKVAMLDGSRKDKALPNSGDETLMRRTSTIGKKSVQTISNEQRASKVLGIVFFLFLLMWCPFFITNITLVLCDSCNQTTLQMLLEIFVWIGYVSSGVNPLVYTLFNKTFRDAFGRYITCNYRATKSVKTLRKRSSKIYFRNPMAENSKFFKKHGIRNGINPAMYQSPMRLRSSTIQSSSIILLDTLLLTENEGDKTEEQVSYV
Sequence of 3',5'-cyclic-AMP phosphodiesterase 4D (Homo sapiens) (Q08499 whole entry): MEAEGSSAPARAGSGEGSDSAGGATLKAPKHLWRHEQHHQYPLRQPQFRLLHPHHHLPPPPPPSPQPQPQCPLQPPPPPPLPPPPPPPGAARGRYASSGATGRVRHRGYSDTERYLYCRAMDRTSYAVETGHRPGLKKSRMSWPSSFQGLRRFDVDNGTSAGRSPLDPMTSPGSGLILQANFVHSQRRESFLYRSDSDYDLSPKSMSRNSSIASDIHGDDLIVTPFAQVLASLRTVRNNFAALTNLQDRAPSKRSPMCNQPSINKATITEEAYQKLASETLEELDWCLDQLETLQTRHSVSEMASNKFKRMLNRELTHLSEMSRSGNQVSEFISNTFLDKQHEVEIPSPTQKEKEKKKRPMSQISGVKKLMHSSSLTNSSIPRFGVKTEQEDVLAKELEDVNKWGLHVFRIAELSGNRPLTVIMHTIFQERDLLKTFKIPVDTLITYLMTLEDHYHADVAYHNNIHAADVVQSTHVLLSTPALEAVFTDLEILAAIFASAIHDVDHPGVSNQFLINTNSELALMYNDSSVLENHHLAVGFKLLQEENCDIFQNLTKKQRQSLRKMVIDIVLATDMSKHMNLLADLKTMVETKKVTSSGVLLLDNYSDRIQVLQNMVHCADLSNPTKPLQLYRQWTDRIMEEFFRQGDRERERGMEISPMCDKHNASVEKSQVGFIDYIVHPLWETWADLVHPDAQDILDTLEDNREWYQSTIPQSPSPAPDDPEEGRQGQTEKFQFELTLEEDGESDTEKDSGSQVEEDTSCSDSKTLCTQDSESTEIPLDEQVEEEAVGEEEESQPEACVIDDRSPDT
Sequence of 5-hydroxytryptamine receptor 7 (P34969 whole entry): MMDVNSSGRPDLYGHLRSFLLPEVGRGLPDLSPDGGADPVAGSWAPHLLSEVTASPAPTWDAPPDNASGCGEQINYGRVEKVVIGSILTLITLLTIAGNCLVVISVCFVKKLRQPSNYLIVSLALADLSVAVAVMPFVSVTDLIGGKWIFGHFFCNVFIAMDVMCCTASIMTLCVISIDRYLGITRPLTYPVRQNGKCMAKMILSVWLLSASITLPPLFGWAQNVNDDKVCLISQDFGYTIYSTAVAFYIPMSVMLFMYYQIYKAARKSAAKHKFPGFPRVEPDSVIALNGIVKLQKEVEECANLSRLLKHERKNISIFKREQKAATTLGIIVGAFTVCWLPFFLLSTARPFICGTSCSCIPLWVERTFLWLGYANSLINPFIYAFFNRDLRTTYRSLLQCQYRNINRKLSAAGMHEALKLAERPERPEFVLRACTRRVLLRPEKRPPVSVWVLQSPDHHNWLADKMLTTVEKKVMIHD
Sequence of Cannabinoid receptor 1 (Homo sapiens) (P21554 whole entry): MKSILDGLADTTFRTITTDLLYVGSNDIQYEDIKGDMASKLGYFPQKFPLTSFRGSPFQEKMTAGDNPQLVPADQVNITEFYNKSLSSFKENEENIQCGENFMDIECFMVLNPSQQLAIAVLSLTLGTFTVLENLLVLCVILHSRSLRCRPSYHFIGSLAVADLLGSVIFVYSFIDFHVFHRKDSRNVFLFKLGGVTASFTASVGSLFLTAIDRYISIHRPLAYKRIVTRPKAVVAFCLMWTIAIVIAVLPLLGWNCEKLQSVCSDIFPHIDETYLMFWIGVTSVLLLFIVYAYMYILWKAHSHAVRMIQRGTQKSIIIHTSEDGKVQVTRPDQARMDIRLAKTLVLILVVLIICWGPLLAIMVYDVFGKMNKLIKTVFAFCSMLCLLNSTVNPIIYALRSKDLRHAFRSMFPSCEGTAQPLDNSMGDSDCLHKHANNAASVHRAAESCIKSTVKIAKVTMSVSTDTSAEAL
Sequence of Acetylcholinesterase (Homo sapiens) (P22303 whole entry): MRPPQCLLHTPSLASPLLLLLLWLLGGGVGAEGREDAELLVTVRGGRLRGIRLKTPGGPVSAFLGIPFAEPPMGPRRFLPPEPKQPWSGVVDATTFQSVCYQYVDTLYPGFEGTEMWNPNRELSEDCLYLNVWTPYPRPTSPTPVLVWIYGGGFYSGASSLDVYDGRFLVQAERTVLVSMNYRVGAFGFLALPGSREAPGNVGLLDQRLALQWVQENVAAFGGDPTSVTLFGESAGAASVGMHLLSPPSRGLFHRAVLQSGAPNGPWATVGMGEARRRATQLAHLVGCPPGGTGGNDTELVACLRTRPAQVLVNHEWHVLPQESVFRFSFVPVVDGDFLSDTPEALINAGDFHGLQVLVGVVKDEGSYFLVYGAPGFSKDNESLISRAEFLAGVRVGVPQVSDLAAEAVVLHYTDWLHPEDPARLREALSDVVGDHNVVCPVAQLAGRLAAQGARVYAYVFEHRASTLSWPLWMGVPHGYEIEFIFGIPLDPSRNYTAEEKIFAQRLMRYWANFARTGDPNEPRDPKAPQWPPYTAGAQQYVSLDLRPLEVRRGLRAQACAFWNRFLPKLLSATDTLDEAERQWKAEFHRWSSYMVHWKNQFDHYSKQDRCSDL

As to `c1cc2c(s1)[C@@H]1CNCCN1CC2`, the Activity result in series [1] is “Toxic”; in [2], 5.4%; in series [4], “Non-toxic”; in series [5], “Non-toxic”; in series [6], “Toxic”; in [7], “Toxic”. For the same compound, the Activity in series [8] is 45.3%; in [9] it was “Toxic”; in series [10], 2.45%; in [11] it was 72.7%; in [12], “Non-toxic”; in [13], “Non-toxic”. The Activity result in series [14] is “Non-toxic”; in [15] it was -0.73%; in series [16], “Non-toxic”; in [17], “Non-toxic”; in series [20], “Toxic”. Also, the activity at 10 µM at L-type calcium channel is -7.25%. In addition, the unbound share (fraction unbound) in series [3] was found to be 0.668. The EC50 in series [18] came out at 10.9 µM. Also, the Kp at 0.25 h in [19] came to 8.45.
